One test has as its system pUC19 plasmid DNA. As to the kind of experiment: nuclease-like activity, plasmid DNA cleavage. The format is biochemical.
The next test has as its system THP-1 cells. As to the kind of experiment: intracellular production of reactive oxygen species, DCFH2-DA. The format is cell-based, human. Conditions: THP-1, 200 nM, 23.5 h; pyocyanin 100 μM as radical-forming control. The protocol: THP-1 cells were used for the determination of the potential of tested compounds to initiate the intracellular ROS production, as was described previously with some minor modifications. Cells in serum-free RPMI 1640 medium without phenol red were seeded into black 96-well plates (5 × 10^4 cells/100 µL/well). After 2 h of incubation, the cells were treated with copper(II) complexes 1–5 at a concentration of 200 nM, and pyocyanin at a final concentration of 100 μM was added into control group to trigger production of reactive oxygen species (ROS), respectively. After the incubation at 37 °C for either 1.5 h or 23.5 h, dichlorofluorescin diacetate (DCFH2-DA) (5 μg/mL) was added and cells were kept under the same conditions hereafter. Thirty minutes later, fluorometric measurement of the fluorescent product DCF was conducted using a Tecan Infinite F200 microplate reader (Tecan, Männedorf, Switzerland) with λ(ex./em.) = 485/520 nm.

The subject of test [1] is colorectal adenocarcinoma (Caco-2). As to the kind of experiment: in vitro cytotoxicity, MTT assay. The class given is cell-based, human. Conditions: mean ± SD, at least three independent experiments.
The test system of test [2] is prostate adenocarcinoma (PC-3). As to the kind of experiment: in vitro cytotoxicity, MTT assay. The format is cell-based, human. Conditions: mean ± SD, at least three independent experiments. The protocol: (§1) The testing was performed on the following human cancer cell lines: breast adenocarcinoma (MCF-7), osteosarcoma (HOS), lung adenocarcinoma (A549), prostate adenocarcinoma (PC-3), ovarian carcinoma (A2780), cisplatin-resistant ovarian carcinoma (A2780R) and colorectal adenocarcinoma (Caco-2) obtained from ATCC collection of cell lines and cultivated according to producer’s instructions.
A general note: Tetrazolium dyes change colour on reduction, which living cells bring about.

In test [3] the test system is lung adenocarcinoma (A549). Briefly: in vitro cytotoxicity, MTT assay. The class given is cell-based, human. Conditions: mean ± SD, at least three independent experiments. The protocol: as §1
The test system of test [4] is cisplatin-resistant ovarian carcinoma (A2780R). As to the kind of experiment: in vitro cytotoxicity, MTT assay. The format is cell-based, human. Conditions: mean ± SD, at least three independent experiments. On the procedure: as §1
In test [5] the test system is breast adenocarcinoma (MCF-7). As to the kind of experiment: in vitro cytotoxicity, MTT assay. The class given is cell-based, human. Conditions: mean ± SD, at least three independent experiments. On the procedure: as §1
Test [6] deals with ovarian carcinoma (A2780). As to the kind of experiment: in vitro cytotoxicity, MTT assay. The class given is cell-based, human. The following applies: mean ± SD, at least three independent experiments. On the procedure: as §1
Test [7] has as its system NF-κB/AP-1 in THP-1-XBlue-MD2-CD14 cells. As to the kind of experiment: LPS-stimulated NF-κB/AP-1 activity, SEAP reporter. The format is cell-based, human. Conditions: complexes applied at 200 nM and 50 nM, 1 h pre-treatment, read 24 h after LPS. On the procedure:
The activity of transcription factors NF-κB/AP-1 was evaluated using the THP-1-XBlue^TM-MD2-CD14 cell line [obtained from Invivogen (San Diego, CA, USA)], expressing an NF-κB/AP-1-inducible secreted embryonic alkaline phosphatase (SEAP) reporter gene, as was described previously. The complexes 1–5 were applied to the cells at the concentrations of 200 nM and 50 nM, pomiferin (at 200 nM), and a reference drug prednisone at 1 μM, respectively. Lipopolysaccharide (LPS) from E. coli 0111:B4 (Sigma-Aldrich) dissolved in PBS was used to trigger an inflammation-like reaction. The activity of the SEAP was determined by Quanti-Blue^TM reagent (Invivogen, San Diego, CA, USA) according to the manufacturer’s instructions 24 h after lipopolysaccharide stimulation. The activity of NF-κB/AP-1 was determined spectrophotometrically using the FLUOstar Omega microplate reader (BMG Labtech, Ortenberg, Germany) at 655 nm and compared with that of the vehicle.

Test [8] relates to primary culture of human hepatocytes (Hep). As to the kind of experiment: toxicity against primary culture of human hepatocytes. The format is cell-based. The following applies: tested range 0.1–100 μM.
Test [9] concerns THP-1 human monocytic leukemia cell line. Briefly: relative cell viability, WST-1. The class given is cell-based. Conditions: serum-free medium, 24 h, six independent experiments. The protocol:
The THP-1 human monocytic leukemia cell line was purchased from the European Collection of Cell Cultures (ECACC, Salisbury, UK). Cells were cultured in an RPMI 1640 medium containing stabilized 2 mM L-glutamine (Biosera, Nuaille, France) supplemented with the mixture of antibiotics [100 U/mL penicillin and […] (Biosera, Nuaille, France)], and 10% foetal bovine serum (FBS) (HyClone, Marlborough, MA, USA). The cells were kept in an incubator at 37 °C in an atmosphere of air containing 5% CO2 and 100% humidity.
The relative cell viability of floating monocytes THP-1 were determined after 24 h incubation in a serum-free medium with compounds 1–5 dissolved in N,N-dimethylformamide (DMF) at increasing concentrations (20–0.125 µM) by the cell proliferation reagent WST-1 (Roche, Basel, Switzerland) according to the manufacturer’s manual, as we described previously. The IC50 values were calculated from resultant viability curves by four-parameter logistic (4PL) analysis.

The test system of the next test is osteosarcoma (HOS). As to the kind of experiment: in vitro cytotoxicity, MTT assay. The format is cell-based, human. The following applies: mean ± SD, at least three independent experiments.
The test system of test [10] is caspase 3 (Casp-3) in THP-1 cells. Briefly: Western blotting of apoptosis-related proteins. The format is cell-based, human. Conditions: THP-1, complexes 4 µM, 24 h, Western blot. The protocol: In addition to the above-mentioned methods, the Western blotting method was used to shed light on the mechanisms associated with caspase 3 activation in the THP-1 cells. Two and a half milliliters of floating THP-1 monocytes resuspended in a serum-free RPMI 1640 medium were seeded into 6-well plates at the concentration of 10^6 cells/mL. Two hours later, complexes 3 and 5 were added at the concentration level of 4 µM. After 24 h incubation, the cells were collected by centrifugation (3000 g/5 min/4 °C), washed by cold PBS and resuspended in an ice-cold lysis buffer (50 mM Tris-HCl pH 7.5, 1 mM EGTA, 1 mM EDTA, 1 mM sodium orthovanadate, 50 mM sodium fluoride, 5 mM sodium pyrophosphate, 270 mM sucrose) with Roche cOmplete protease inhibitors (Roche Diagnostics, Basel, Switzerland). The cell lysates were centrifuged at 3000 g/5 min/4 °C and supernatants were mixed with a 5x Laemmli buffer [containing 250 mM Tris-HCl pH 6.8, 10% (w/v) SDS, 30% (v/v) glycerol, 5% (v/v) β-mercaptoethanol, 0.04% (w/v) bromphenol blue] and incubated at 70 °C for 5 min. […] The membranes were incubated at 4 °C for 16 h with a primary anti-cleaved caspase 3 (p17) antibody at the dilution 1:1000 (Cell Signaling, Danvers, MA, USA; products No. 9664), and an Apoptosis WB Cocktail (Abcam, Cambridge, UK; product No. ab136812) at the dilution recommended by the provider to detect β-actin, cleaved poly-(ADP-ribose) polymerase (PARP) and pro-caspase 3. After washing in a TBST buffer, the secondary anti-rabbit IgG antibody (Sigma-Aldrich, product No. A0545) was diluted 1:2500 and applied to the membranes, which were then incubated for 1 h at the laboratory temperature (~22 °C). The amount of bound secondary antibody was determined using an ECL reagent (Bio-Rad, Hercules, CA, USA). Chemiluminescence was detected using a Syngene PXi4 chemiluminescence imaging system (Cambridge, UK).
For orientation: A western blot detects proteins with antibodies after separation by electrophoresis.

Test [11] deals with MCF-7/Topo breast adenocarcinoma cells. More on the design: method as in PMID 27936296. The following applies: 72 h incubation; cited from earlier work.
The subject of test [12] is Ea.Hy 926 endothelial hybrid cells. More on the design: method as in PMID 27936296. The following applies: read-out: IC50 Ea.Hy 926 healthy endothelial hybrid cells; cited from earlier work.
For a further test, the system named is U-87 MG glioblastoma. More on the design: method as in PMID 27936296. The following applies: 72 h incubation; cited from earlier work.
In test [13] the test system is Panc-1 pancreas carcinoma cells. More on the design: method as in PMID 27936296. Conditions: 72 h incubation; cited from earlier work.
The test system of another test is 518A2 melanoma cells. Set-up: method as in PMID 23973682. Conditions: 72 h incubation; cited from earlier work.
Test [14] has as its system KB-V1/Vbl cervix carcinoma cells. More on the design: method as in PMID 27936296. Conditions: 72 h incubation; cited from earlier work.
A further test concerns DLD-1 colon carcinoma. Set-up: method as in PMID 27936296. Conditions: 72 h incubation; cited from earlier work.
A further test has as its system A2780 cell line. Set-up: method as in PMID 32578983. The following applies: 24 h incubation; cited from earlier work.

Regarding `CC(C)=CCc1c2c(c3occ(-c4ccc(O)c(O)c4)c(=O)c3c1[O-])C=CC(C)(C)O2.CO.CO.O=[N+]([O-])[O-].[Cu+2].c1ccc(-c2ccccn2)nc1` [Complex 1, (3-(3,4-dihydroxyphenyl)-8,8-dimethyl-6-(3-methylbut-2-en-1-yl)-4H,8H-benzo[1,2-b:3,4-b′]dipyran-4-one-5-olato-κ^2O4:O5)(2,2′-bipyridine–κ^2N:N)copper(II) nitrate methanol disolvate], the “plasmid DNA nicked to OC-form” value in the test with pUC19 plasmid DNA (10 µM, water-containing medium (10% DMF), 37 °C, 1 h) is listed as “ca. 30%”. Also, the “DNA cleavage in the presence of ROS scavengers (KI, NaN3, DMSO)” value in the test on pUC19 plasmid DNA (0.66 mM H2O2, scavengers equimolar to complex) was “decreased by DMSO”. Besides, the “ROS production, long term” value with THP-1 cells is listed as “elevated the ROS levels similarly as pyocyanin”. In addition, the IC50 (as a rule, the concentration that gives 50% inhibition) in [1] turned out to be 13.7 ± 7.4 µM; in test [2], 22.1 ± 1.9 µM; in test [3], 20.8 ± 1.5 µM; in test [4], 5.6 ± 0.3 µM; in test [5], 23.8 ± 0.2 µM; in test [6] it was 12.1 ± 1.5 µM. Further, the IC50 in [8] was over 100 µM; in test [9] it was 4 ± 1.1 µM; in the test with osteosarcoma (HOS) it was 21.5 ± 1.4 µM. In test [7], the “inhibition of LPS-stimulated NF-κB/AP-1 activation” value is “able to inhibit”.

As to `CC(C)=CCc1c2c(c3occ(-c4ccc(O)c(O)c4)c(=O)c3c1[O-])C=CC(C)(C)O2.CO.CO.O=[N+]([O-])[O-].[Cu+2].c1cnc2c(c1)ccc1cccnc12` [Complex 3, (3-(3,4-dihydroxyphenyl)-8,8-dimethyl-6-(3-methylbut-2-en-1-yl)-4H,8H-benzo[1,2-b:3,4-b′]dipyran-4-one-5-olato-κ^2O4:O5)(1,10-phenanthroline–κ^2N:N)copper(II) nitrate methanol disolvate], the “ROS production, long term” value with THP-1 cells was “highest pro-oxidant potential of all the complexes”. Besides, the IC50 came to 4.2 ± 1.9 µM in [1]; 13 ± 1.4 µM in test [2]; 3.5 ± 0.2 µM in test [3]; 2.9 ± 1.2 µM in test [4]; 5.9 ± 0.6 µM in [5]; 5.8 ± 2.2 µM in [6]. For the same compound, the IC50 is over 100 µM in test [8], over 10 µM in test [9] and 3.5 ± 0.1 µM in the test with osteosarcoma (HOS). Further, in test [7], the “inhibition of LPS-stimulated NF-κB/AP-1 activation” value was “no influence on the activity”. In test [10], the “levels of pro-caspase 3 (pro-Casp-3)” value is recorded as “dramatically decreased”. Also, in [10] (cisplatin 10 µM), the “proteolytically activated Casp-3 (verified by cleaved PARP-1)” value is given as “detected”.

Consider `O=c1c(-c2ccc(O)cc2)coc2cc(O)cc([O-])c12.O=c1c(-c2ccc(O)cc2)coc2cc(O)cc([O-])c12.[Cu+2]` [[Cu(L)2], bis[3-(4-hydroxyphenyl)-7-hydroxy-4H-benzopyran-4-one-5-olato-κO^2] copper(II)], for which the IC50 was 15 ± 1.5 µM in test [11]; 20.1 ± 0.7 µM in test [12]; 30.2 ± 5 µM in the test on U-87 MG glioblastoma; 16.9 ± 0.8 µM in test [13]; 10.9 ± 1.4 µM in the test on 518A2 melanoma cells; 8 ± 0.2 µM in [14]. The IC50 in the test on DLD-1 colon carcinoma is 21.2 ± 1.8 µM.

On to `c1ccc(-c2ccccn2)nc1` [bipy, 2,2′-bipyridine], for which, in the test on A2780 cell line, the IC50 is over 100 µM.

For `c1cnc2c(c1)ccc1cccnc12` [phen, 1,10-phenanthroline], the IC50 in the test with A2780 cell line was over 100 µM.

The values are drawn from PMC8305652, “Copper(II) Complexes Containing Natural Flavonoid Pomiferin Show Considerable In Vitro Cytotoxicity and Anti-inflammatory Effects” (International Journal of Molecular Sciences, 2021).
